Assay [1] deals with PLK1 PBD protein (residues 367-603) (Homo sapiens (Human), UniProt P53350). Nature of the assay: Competitive fluorescence polarization (FP) binding assay, PLK1 PBD.
The next assay has as its target PLK1 (Homo sapiens (Human), UniProt P53350). Particulars: previously identified minimized PBD binding sequences; cited from earlier work.
The mark [2] stands for this setting: Table 2, FP assay, read-out: IC50.

Read-outs that look alike come from different tables or passages of the source. Numbered stars: 1 amine (or outer) side, 2 acyl side, 3 side chain; on linkers, the order of the positions; unused ones are H or OH. Square brackets hold non-standard residues; d marks the D form. Ends that are not written are not given here. Peptide text beside a SMILES is read from it. * marks the point of attachment. Quinoline(6-carbonyl) = O=C(c1ccc2ncccc2c1)*; X11 = O=C(c1cn(S(=O)(=O)c2ccccc2)c2ccccc12)*; X6 = Cc1c(C(=O)*)cc(-c2ccccc2)n1-c1ccccc1; NMe4Abz = CN(c1ccc(C(=O)[*:2])cc1)[*:1]; X3 = Cc1ccc(-c2cn(CC(=O)*)c(=O)cn2)cc1; pT = C[C@@H](OP(=O)(O)O)[C@H](N)C(=O)O; X14 = COc1cccc(-c2cc(C(=O)*)[nH]n2)c1; Benzoyl(4-OMe) = COc1ccc(C(=O)*)cc1; X7 = Cc1ccc2c(c1)N(CC(=O)*)C(=O)CO2; Benzoyl(4-Et) = CCc1ccc(C(=O)*)cc1; 1Naphthoyl = O=C(c1cccc2ccccc12)*; X2 = Cc1nc(-c2ccc(C(=O)*)cc2)no1; X10 = COc1cc(C(=O)*)cc2c1OCCO2; X15 = COc1ccc(C(=O)*)c2ccccc12; X8 = Cc1cc2c(SCC(=O)*)ncnc2s1; X1 = CCCCc1ccc(C(=O)*)cc1; X17 = CCCc1ccc(C(=O)*)cc1; X5 = CCCNc1ccc(C(=O)*)cc1; X9 = CCOc1ccc(C(=O)*)cc1; X4 = CSc1ccc(C(=O)*)cc1

PLK1 PBD protein (residues 367-603), sequence (P53350 367-603): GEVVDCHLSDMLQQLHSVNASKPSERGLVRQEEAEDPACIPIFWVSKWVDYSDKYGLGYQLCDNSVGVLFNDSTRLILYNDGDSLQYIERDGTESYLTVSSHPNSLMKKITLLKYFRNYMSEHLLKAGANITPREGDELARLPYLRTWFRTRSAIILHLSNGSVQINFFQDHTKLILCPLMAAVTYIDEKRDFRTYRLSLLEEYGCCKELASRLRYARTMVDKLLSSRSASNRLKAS
PLK1, sequence (P53350 326-603): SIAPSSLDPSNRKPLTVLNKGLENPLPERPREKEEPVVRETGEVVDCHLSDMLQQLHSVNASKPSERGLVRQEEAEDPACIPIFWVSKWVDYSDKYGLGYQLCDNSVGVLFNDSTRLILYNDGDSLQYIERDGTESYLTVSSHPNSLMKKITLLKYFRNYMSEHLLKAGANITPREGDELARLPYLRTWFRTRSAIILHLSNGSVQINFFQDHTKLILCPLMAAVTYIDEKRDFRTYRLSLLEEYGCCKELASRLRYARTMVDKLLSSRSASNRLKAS

Turning to `CC(C)C[C@H](NC(=O)CNC(=O)[C@H](CC(N)=O)NC(=O)[C@@H]1CCCN1C(=O)[C@@H](NC(=O)[C@@H](N)CO)[C@@H](C)OP(=O)(O)O)C(=O)O` [Sample No. 5714, S[pT]PNGL] (H-S[pT]PNGL-OH), the “PLK1 PBD IC50” value in assay [1] (Table 1) is “no detectable binding”.
What is called IC50 is the concentration needed to halve the response being measured. Consider `CC[C@H](C)[C@H](NC(=O)[C@H](C)NC(=O)[C@@H](NC(=O)[C@H](CO)NC(=O)[C@H](Cc1c[nH]cn1)NC(=O)[C@H](CC(C)C)NC(C)=O)[C@@H](C)OP(=O)(O)O)C(=O)O` [Sample No. 5781, Ac-LHS[pT]AI, reference compound] (Ac-LHS[pT]AI-OH), for which, in assay [1] (Table 1, read-out: PLK1 PBD IC50), the IC50 is 5 µM.
`CC(C)C[C@H](NC(=O)CNC(=O)[C@H](CC(N)=O)NC(=O)[C@@H]1CCCN1C(=O)[C@@H](NC(=O)[C@H](CO)NC(=O)c1cn(S(=O)(=O)c2ccccc2)c2ccccc12)[C@@H](C)OP(=O)(O)O)C(=O)O` [compound 5591] (X11-S[pT]PNGL-OH): the IC50 in assay [1] worked out at 375 µM.
Still for that read-out and setting: the figure for `COc1cccc(-c2cc(C(=O)N[C@@H](CO)C(=O)N[C@H](C(=O)N3CCC[C@H]3C(=O)N[C@@H](CC(N)=O)C(=O)NCC(=O)N[C@@H](CC(C)C)C(=O)O)[C@@H](C)OP(=O)(O)O)[nH]n2)c1` [compound 5593] (X14-S[pT]PNGL-OH) is 380 µM; for `Cc1ccc2c(c1)N(CC(=O)N[C@@H](CO)C(=O)N[C@H](C(=O)N1CCC[C@H]1C(=O)N[C@@H](CC(N)=O)C(=O)NCC(=O)N[C@@H](CC(C)C)C(=O)O)[C@@H](C)OP(=O)(O)O)C(=O)CO2` [compound 5594, 1G1-S[pT]PNGL] (X7-S[pT]PNGL-OH) it is 350 µM.
The compound `Cc1cc2c(SCC(=O)N[C@@H](CO)C(=O)N[C@H](C(=O)N3CCC[C@H]3C(=O)N[C@@H](CC(N)=O)C(=O)NCC(=O)N[C@@H](CC(C)C)C(=O)O)[C@@H](C)OP(=O)(O)O)ncnc2s1` [compound 5595] (X8-S[pT]PNGL-OH) came in with an IC50 in assay [1] of 475 µM.
The same measure, in the same setting: the figure for `Cc1nc(-c2ccc(C(=O)N[C@@H](CO)C(=O)N[C@H](C(=O)N3CCC[C@H]3C(=O)N[C@@H](CC(N)=O)C(=O)NCC(=O)N[C@@H](CC(C)C)C(=O)O)[C@@H](C)OP(=O)(O)O)cc2)no1` [compound 5598, 1G2-S[pT]PNGL] (X2-S[pT]PNGL-OH) is 320 µM; for `Cc1c(C(=O)N[C@@H](CO)C(=O)N[C@H](C(=O)N2CCC[C@H]2C(=O)N[C@@H](CC(N)=O)C(=O)NCC(=O)N[C@@H](CC(C)C)C(=O)O)[C@@H](C)OP(=O)(O)O)cc(-c2ccccc2)n1-c1ccccc1` [compound 5599] (X6-S[pT]PNGL-OH) it is 600 µM.
Same read-out and setting: the result for `CC(C)C[C@H](NC(=O)CNC(=O)[C@H](CC(N)=O)NC(=O)[C@@H]1CCCN1C(=O)[C@@H](NC(=O)[C@H](CO)NC(=O)c1ccc2ncccc2c1)[C@@H](C)OP(=O)(O)O)C(=O)O` [compound 5601] ({Quinoline(6-carbonyl)}-S[pT]PNGL-OH) reads 400 µM; that for `Cc1ccc(-c2cn(CC(=O)N[C@@H](CO)C(=O)N[C@H](C(=O)N3CCC[C@H]3C(=O)N[C@@H](CC(N)=O)C(=O)NCC(=O)N[C@@H](CC(C)C)C(=O)O)[C@@H](C)OP(=O)(O)O)c(=O)cn2)cc1` [compound 5603, 1G3-S[pT]PNGL] (X3-S[pT]PNGL-OH), 250 µM; that for `COc1cc(C(=O)N[C@@H](CO)C(=O)N[C@H](C(=O)N2CCC[C@H]2C(=O)N[C@@H](CC(N)=O)C(=O)NCC(=O)N[C@@H](CC(C)C)C(=O)O)[C@@H](C)OP(=O)(O)O)cc2c1OCCO2` [compound 5604] (X10-S[pT]PNGL-OH), 300 µM.
One may read the Kd as the free concentration of one partner at which half of the binding sites on the other are occupied at equilibrium, for simple one-to-one binding. Regarding `CC[C@H](C)[C@H](NC(=O)[C@H](C)NC(=O)[C@@H](NC(=O)[C@H](CO)NC(=O)[C@H](Cc1c[nH]cn1)NC(=O)[C@@H](N)CC(C)C)[C@@H](C)OP(=O)(O)O)C(=O)O` [compound 5649, LHS[pT]AI] (H-LHS[pT]AI-OH), on PLK1, the Kd was 0.25 µM.
In assay [1], `CC(C)C[C@H](NC(=O)CNC(=O)[C@H](CC(N)=O)NC(=O)[C@@H]1CCCN1C(=O)[C@@H](NC(=O)[C@H](CO)NC(=O)c1cccc2ccccc12)[C@@H](C)OP(=O)(O)O)C(=O)O` [compound 5753] (1Naphthoyl-S[pT]PNGL-OH) showed an IC50 of 104 µM.
For `COc1ccc(C(=O)N[C@@H](CO)C(=O)N[C@H](C(=O)N2CCC[C@H]2C(=O)N[C@@H](CC(N)=O)C(=O)NCC(=O)N[C@@H](CC(C)C)C(=O)O)[C@@H](C)OP(=O)(O)O)cc1` [compound 5754] ({Benzoyl(4-OMe)}-S[pT]PNGL-OH), in assay [1] (setting [2]), the IC50 turned out to be 125 µM.
Compound `COc1ccc(C(=O)N[C@@H](CO)C(=O)N[C@H](C(=O)N2CCC[C@H]2C(=O)N[C@@H](CC(N)=O)C(=O)NCC(=O)N[C@@H](CC(C)C)C(=O)O)[C@@H](C)OP(=O)(O)O)c2ccccc12` [compound 5756, 2G1-S[pT]PNGL] (X15-S[pT]PNGL-OH) gave an IC50 in assay [1] of 99 µM.
For the compound `CCOc1ccc(C(=O)N[C@@H](CO)C(=O)N[C@H](C(=O)N2CCC[C@H]2C(=O)N[C@@H](CC(N)=O)C(=O)NCC(=O)N[C@@H](CC(C)C)C(=O)O)[C@@H](C)OP(=O)(O)O)cc1` [compound 5786] (X9-S[pT]PNGL-OH), in assay [1] (setting [2]), the IC50 worked out at 64.7 µM.
Still for that read-out and setting: the figure for `CCc1ccc(C(=O)N[C@@H](CO)C(=O)N[C@H](C(=O)N2CCC[C@H]2C(=O)N[C@@H](CC(N)=O)C(=O)NCC(=O)N[C@@H](CC(C)C)C(=O)O)[C@@H](C)OP(=O)(O)O)cc1` [compound 5788, 3G1-S[pT]PNGL (4-ethylbenzoic acid)] ({Benzoyl(4-Et)}-S[pT]PNGL-OH) is 16.5 µM.
On the same count and under the same terms, the result for `CSc1ccc(C(=O)N[C@@H](CO)C(=O)N[C@H](C(=O)N2CCC[C@H]2C(=O)N[C@@H](CC(N)=O)C(=O)NCC(=O)N[C@@H](CC(C)C)C(=O)O)[C@@H](C)OP(=O)(O)O)cc1` [compound 5791] (X4-S[pT]PNGL-OH) reads 18.5 µM; that for `CNc1ccc(C(=O)N[C@@H](CO)C(=O)N[C@H](C(=O)N2CCC[C@H]2C(=O)N[C@@H](CC(N)=O)C(=O)NCC(=O)N[C@@H](CC(C)C)C(=O)O)[C@@H](C)OP(=O)(O)O)cc1` [compound 5792] (NMe4Abz-S[pT]PNGL-OH), 31.2 µM.
With `CCCc1ccc(C(=O)N[C@@H](CO)C(=O)N[C@H](C(=O)N2CCC[C@H]2C(=O)N[C@@H](CC(N)=O)C(=O)NCC(=O)N[C@@H](CC(C)C)C(=O)O)[C@@H](C)OP(=O)(O)O)cc1` [compound 5826] (X17-S[pT]PNGL-OH), in assay [1] (setting [2]), the IC50 was 10.8 µM.
Still for that read-out and setting: the figure for `CCCCc1ccc(C(=O)N[C@@H](CO)C(=O)N[C@H](C(=O)N2CCC[C@H]2C(=O)N[C@@H](CC(N)=O)C(=O)NCC(=O)N[C@@H](CC(C)C)C(=O)O)[C@@H](C)OP(=O)(O)O)cc1` [compound 5827, 3G2-S[pT]PNGL (4-butylbenzoic acid)] (X1-S[pT]PNGL-OH) is 8.6 µM; for `CCCNc1ccc(C(=O)N[C@@H](CO)C(=O)N[C@H](C(=O)N2CCC[C@H]2C(=O)N[C@@H](CC(N)=O)C(=O)NCC(=O)N[C@@H](CC(C)C)C(=O)O)[C@@H](C)OP(=O)(O)O)cc1` [compound 5830] (X5-S[pT]PNGL-OH) it is 16.5 µM.
As to Ac-PLHSEA [compound 5744, Ac-PLHSEA], the “PLK1 PBD IC50” value in assay [1] (Table 1) is listed as “weakly but detectably bound”.

The values above are taken from patent US9175357B2, “Fragment ligated inhibitors selective for the polo box domain of PLK1” (UNIVERSITY OF SOUTH CAROLINA, priority 2011, dated 2015).
